Columns and labels:
P-glycoprotein [1] = molecular target: T1, P-glycoprotein (Cricetulus griseus, UniProt P21448); test: displacement of [3H]vinblastine equilibrium binding, rapid filtration; details: read-out: EC50 (the source's name)
T1 construct: gene ABCB1; CHrB30 plasma membranes

P-glycoprotein [2] = molecular target: T1, P-glycoprotein; test: radioligand filtration binding; no specific binding in parental AuxB1 membranes (Kd […] is quoted from earlier work)

T1 sequence (P21448 whole entry): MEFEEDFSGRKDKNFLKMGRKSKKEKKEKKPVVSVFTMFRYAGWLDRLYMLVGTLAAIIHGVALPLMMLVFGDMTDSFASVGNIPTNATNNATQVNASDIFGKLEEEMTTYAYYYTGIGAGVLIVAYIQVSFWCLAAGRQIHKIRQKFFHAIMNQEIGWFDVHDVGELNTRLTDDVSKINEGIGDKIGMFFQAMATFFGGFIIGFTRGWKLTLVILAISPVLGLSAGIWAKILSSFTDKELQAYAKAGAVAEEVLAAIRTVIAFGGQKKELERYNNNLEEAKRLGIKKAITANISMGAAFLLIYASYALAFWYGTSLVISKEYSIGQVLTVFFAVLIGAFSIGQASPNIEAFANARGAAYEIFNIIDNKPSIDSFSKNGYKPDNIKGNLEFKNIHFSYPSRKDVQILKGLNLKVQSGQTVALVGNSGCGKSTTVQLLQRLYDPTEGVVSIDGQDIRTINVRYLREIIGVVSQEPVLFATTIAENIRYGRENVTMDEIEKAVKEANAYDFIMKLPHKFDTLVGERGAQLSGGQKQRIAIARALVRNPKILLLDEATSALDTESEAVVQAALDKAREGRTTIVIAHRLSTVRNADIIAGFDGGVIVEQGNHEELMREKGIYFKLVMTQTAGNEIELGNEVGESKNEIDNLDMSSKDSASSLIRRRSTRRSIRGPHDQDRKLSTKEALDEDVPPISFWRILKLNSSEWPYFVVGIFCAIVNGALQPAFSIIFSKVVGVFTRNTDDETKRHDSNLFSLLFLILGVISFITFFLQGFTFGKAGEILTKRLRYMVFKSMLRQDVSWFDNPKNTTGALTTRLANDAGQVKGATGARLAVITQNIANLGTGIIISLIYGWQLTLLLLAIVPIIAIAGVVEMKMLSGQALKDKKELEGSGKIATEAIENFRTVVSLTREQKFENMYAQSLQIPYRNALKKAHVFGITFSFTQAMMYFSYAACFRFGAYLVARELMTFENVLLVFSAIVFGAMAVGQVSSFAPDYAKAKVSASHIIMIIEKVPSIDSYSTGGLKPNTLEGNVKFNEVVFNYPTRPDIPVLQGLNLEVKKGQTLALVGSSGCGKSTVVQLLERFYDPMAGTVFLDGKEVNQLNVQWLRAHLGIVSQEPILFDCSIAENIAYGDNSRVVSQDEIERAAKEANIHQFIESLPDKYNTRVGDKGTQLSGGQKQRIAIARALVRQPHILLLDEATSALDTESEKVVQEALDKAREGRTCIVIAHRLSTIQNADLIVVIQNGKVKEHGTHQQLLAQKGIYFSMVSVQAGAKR

Row | IC50 (P-glycoprotein [1]) | SMILES | radioligand filtration binding; no specific binding in parental AuxB1 membranes (P-glycoprotein [2])
1 | 1.4 nM | COc1cc2c(cc1OC)CN(CCc1ccc(NC(=O)c3cccc(/C=c4\[nH]c(=O)/c(=C/c5ccccc5)n(C)c4=O)c3)cc1)CC2 [XR9051, N-(4-(2-(6,7-Dimethoxy-1,2,3,4-tetrahydro-2-isoquinolyl)ethyl)phenyl)-3-((3Z,6Z)-6-benzylidene-1-methyl-2,5-dioxo-3-piperazinylidene) methylbenzamide] | 
2 |  | CC[C@]1(O)C[C@@H]2CN(CCc3c([nH]c4ccccc34)[C@@](C(=O)OC)(c3cc4c(cc3OC)N(C)[C@H]3[C@@](O)(C(=O)OC)[C@H](OC(C)=O)[C@]5(CC)C=CCN6CC[C@]43[C@@H]65)C2)C1 [vinblastine] | A rapid filtration assay was used to determine the equilibrium

From article PMC2063130, “Reversal of P-glycoprotein-mediated multidrug resistance by XR9051, a novel diketopiperazine derivative” (British Journal of Cancer, 1998)
